For ten compounds, IC50 results are on record in patent US20250382297A1, “INHIBITORS OF FGFR2 AND FGFR3 AND USES THEREOF” (Insilico Medicine IP Limited, priority 2022, published 2025).

Where two headings read alike, the source gives them in different places.

The target in experiment [1] is FGFR1 (Homo sapiens (Human), UniProt P11362). As to the kind of experiment: FGFR biochemical assay (LanthaScreen TR-FRET kinase assay), FGFR1. Background: Time-resolved FRET reads energy transfer from a long-lived donor to a nearby acceptor.
Method: (§1) Convert Ratio values to percent inhibition values (Percent inhibition=(max−sample Ratio)/(max−min)*100) where “min” means the Ratio of no enzyme control and “max” means the Ratio of DMSO control. • Data are analyzed and curve fitting is performed by XLFit Excel add-in version 5.4.0.8. The IC50 calculation equation is: Y=Bottom+(Top-Bottom)/(1+ (IC50/X)^HillSlope.
The target in experiment [2] is FGFR4 (Homo sapiens (Human), UniProt P22455). Kind of experiment: FGFR biochemical assay (LanthaScreen TR-FRET kinase assay), FGFR4.
Method: as §1
Experiment [3] has as its target FGFR2 (Homo sapiens (Human), UniProt P21802). As to the kind of experiment: FGFR biochemical assay (LanthaScreen TR-FRET kinase assay), FGFR2.
Method: as §1
Experiment [4] has as its target FGFR3 (Homo sapiens (Human), UniProt P22607). As to the kind of experiment: FGFR biochemical assay (LanthaScreen TR-FRET kinase assay), FGFR3.
Method: as §1
Setting [5] is: read-out: FGFR2 IC50, incubation with enzyme at room temperature for 10 minutes before substrate, ATP 22 μM, FGFR2 0.01 nM.
[6] abbreviates: read-out: FGFR1 IC50, incubation with enzyme at room temperature for 10 minutes before substrate, ATP 28 μM, FGFR1 0.01 nM.

FGFR1, sequence (P11362 22-822): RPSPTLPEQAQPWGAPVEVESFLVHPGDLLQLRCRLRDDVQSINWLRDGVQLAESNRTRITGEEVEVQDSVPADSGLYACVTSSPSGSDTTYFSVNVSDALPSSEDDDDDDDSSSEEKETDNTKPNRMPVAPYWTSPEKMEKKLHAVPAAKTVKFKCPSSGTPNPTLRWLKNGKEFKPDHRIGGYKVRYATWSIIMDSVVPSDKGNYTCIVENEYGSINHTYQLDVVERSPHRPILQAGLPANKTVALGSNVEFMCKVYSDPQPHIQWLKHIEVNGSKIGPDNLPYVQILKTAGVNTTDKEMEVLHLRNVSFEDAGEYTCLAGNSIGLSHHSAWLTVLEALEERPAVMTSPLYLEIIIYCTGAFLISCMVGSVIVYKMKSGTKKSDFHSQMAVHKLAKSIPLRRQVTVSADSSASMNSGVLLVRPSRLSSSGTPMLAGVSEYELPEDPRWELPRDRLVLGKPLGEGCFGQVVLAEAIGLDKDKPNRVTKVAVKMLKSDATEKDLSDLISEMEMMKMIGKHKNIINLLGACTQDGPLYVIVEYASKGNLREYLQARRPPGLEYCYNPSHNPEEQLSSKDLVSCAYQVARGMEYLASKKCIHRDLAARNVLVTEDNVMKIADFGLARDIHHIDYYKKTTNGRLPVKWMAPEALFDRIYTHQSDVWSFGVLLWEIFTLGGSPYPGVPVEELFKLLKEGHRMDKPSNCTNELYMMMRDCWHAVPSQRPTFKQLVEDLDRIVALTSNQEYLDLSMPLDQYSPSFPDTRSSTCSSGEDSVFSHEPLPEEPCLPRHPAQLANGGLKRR
FGFR4, sequence (P22455 22-802): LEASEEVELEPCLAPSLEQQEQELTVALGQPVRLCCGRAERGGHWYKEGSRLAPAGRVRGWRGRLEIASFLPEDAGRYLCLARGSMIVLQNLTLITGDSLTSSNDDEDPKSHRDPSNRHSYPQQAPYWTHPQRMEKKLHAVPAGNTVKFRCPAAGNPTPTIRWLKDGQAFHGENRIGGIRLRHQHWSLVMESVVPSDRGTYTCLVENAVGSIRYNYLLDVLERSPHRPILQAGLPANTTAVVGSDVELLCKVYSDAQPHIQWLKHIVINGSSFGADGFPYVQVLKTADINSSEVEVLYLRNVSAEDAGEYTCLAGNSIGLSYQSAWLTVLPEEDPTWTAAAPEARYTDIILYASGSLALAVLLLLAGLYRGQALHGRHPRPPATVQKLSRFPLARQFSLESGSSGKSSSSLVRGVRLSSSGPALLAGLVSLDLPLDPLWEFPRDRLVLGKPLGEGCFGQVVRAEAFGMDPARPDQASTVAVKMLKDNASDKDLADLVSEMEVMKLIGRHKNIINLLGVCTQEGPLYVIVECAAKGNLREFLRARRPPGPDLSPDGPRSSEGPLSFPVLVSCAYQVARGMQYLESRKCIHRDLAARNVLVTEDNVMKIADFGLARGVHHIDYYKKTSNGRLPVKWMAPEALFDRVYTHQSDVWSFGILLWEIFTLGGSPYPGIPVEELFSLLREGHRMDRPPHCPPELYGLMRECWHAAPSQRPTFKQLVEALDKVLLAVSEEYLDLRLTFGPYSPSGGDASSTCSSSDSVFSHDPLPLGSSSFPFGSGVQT
FGFR2, sequence (P21802 22-821): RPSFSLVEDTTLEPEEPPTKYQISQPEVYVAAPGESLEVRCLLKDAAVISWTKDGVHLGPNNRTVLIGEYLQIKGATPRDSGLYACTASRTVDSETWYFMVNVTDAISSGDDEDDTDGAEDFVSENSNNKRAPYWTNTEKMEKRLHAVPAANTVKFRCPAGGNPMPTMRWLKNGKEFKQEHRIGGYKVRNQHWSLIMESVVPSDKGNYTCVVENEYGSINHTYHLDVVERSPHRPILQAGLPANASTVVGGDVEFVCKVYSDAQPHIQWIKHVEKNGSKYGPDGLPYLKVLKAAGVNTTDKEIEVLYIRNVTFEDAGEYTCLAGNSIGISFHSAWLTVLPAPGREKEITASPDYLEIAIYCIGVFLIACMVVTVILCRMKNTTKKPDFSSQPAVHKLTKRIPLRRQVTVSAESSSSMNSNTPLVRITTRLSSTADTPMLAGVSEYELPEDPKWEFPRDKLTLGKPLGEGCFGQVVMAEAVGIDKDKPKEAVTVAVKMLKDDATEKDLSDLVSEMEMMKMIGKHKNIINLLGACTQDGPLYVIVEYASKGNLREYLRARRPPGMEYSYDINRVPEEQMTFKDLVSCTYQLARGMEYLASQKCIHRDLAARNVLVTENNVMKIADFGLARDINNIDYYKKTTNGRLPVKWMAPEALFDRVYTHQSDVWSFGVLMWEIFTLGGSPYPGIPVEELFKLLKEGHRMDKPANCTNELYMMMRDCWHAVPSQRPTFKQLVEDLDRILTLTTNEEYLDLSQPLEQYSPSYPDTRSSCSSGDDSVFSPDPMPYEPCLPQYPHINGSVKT
FGFR3, sequence (P22607 23-806): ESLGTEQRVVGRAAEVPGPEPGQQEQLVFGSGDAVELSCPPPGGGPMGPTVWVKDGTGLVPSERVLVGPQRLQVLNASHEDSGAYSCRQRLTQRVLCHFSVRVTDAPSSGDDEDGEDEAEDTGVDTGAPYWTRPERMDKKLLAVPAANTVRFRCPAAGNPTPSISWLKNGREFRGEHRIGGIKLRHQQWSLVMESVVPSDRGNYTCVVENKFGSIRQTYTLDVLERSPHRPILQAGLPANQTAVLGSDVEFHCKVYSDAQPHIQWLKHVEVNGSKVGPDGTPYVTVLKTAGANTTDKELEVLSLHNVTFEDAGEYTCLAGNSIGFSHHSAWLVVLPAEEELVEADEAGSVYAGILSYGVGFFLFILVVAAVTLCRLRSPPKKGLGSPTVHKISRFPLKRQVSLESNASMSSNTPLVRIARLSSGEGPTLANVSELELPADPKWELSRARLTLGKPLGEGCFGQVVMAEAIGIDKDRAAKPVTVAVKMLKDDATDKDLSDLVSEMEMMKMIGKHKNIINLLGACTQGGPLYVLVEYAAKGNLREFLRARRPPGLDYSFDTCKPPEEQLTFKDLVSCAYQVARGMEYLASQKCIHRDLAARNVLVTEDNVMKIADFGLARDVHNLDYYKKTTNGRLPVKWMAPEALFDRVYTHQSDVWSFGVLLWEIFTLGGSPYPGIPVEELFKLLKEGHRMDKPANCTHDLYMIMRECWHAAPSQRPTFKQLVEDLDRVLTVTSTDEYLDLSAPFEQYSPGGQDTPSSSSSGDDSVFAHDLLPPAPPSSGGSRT

As a reminder, the IC50 is the concentration at which inhibition is half-maximal. `C=CC(=O)Nc1ccc(-c2c(-c3ccc(Oc4cccc(C)n4)cc3)c(C(N)=O)c3cnc(C)cn23)cc1` [Example 7, 6-(4-acrylamidophenyl)-3-methyl-7-(4-((6-methylpyridin-2-yl)oxy)phenyl)pyrrolo[1,2-a]pyrazine-8-carboxamide]: the IC50 in experiment [1] was 100 to 1000 nM; in experiment [2], 100 to 1000 nM; in experiment [3] (setting [5]) it was < 10 nM; in experiment [4] it was 10 to 100 nM.

For the compound `C=CC(=O)Nc1ccc(-c2c(-c3ccc(Oc4cccc(C)n4)cc3)c(C(N)=O)c3cncc(C)n23)cc1` [Example 5, 6-(4-acrylamidophenyl)-4-methyl-7-(4-((6-methylpyridin-2-yl)oxy)phenyl)pyrrolo[1,2-a]pyrazine-8-carboxamide], the IC50 is 100 to 1000 nM in experiment [1], 100 to 1000 nM in experiment [2], < 10 nM in experiment [3] (setting [5]) and 10 to 100 nM in experiment [4].

As for `C=CC(=O)Nc1ccc(-c2c(-c3ccc(Oc4cccc(C)n4)cc3)c(C(N)=O)c3cnc(CO)cn23)cc1` [Example 11, 6-(4-acrylamidophenyl)-3-(hydroxymethyl)-7-(4-((6-methylpyridin-2-yl)oxy)phenyl)pyrrolo[1,2-a]pyrazine-8-carboxamide], the IC50 was 100 to 1000 nM in experiment [1], 100 to 1000 nM in experiment [2], < 10 nM in experiment [3] (setting [5]) and 10 to 100 nM in experiment [4].

As to `C=CC(=O)Nc1ccc(-c2c(-c3ccc(Oc4cccc(C)n4)cc3)c(C(N)=O)c3n2CCN(C)C3)cc1` [Example 13, 6-(4-acrylamidophenyl)-2-methyl-7-(4-((6-methylpyridin-2-yl)oxy)phenyl)-1,2,3,4-tetrahydropyrrolo[1,2-a]pyrazine-8-carboxamide], the IC50 in experiment [1] is 100 to 1000 nM; in experiment [2] (read-out: FGFR4 IC50, incubation with enzyme at room temperature for 10 minutes before substrate, ATP 238 μM, FGFR4 1 nM), > 1000 nM; in experiment [3], 10 to 100 nM; in experiment [4], 100 to 1000 nM.

`Cc1cn2c(-c3ccc(NC(=O)/C=C/CN(C)C)cc3)c(-c3ccc(Oc4cccc(C)n4)cc3)c(C(N)=O)c2cn1` [Example 9, (E)-6-(4-(4-(dimethylamino)but-2-enamido)phenyl)-3-methyl-7-(4-((6-methylpyridin-2-yl)oxy)phenyl)pyrrolo[1,2-a]pyrazine-8-carboxamide]: the IC50 is 100 to 1000 nM in experiment [1], < 10 nM in experiment [3] (setting [5]) and 10 to 100 nM in experiment [4].

`C=CC(=O)Nc1ccc(-c2c(-c3ccc(Oc4nccc(C)n4)cc3)c(C(N)=O)c3cnc(C)cn23)cc1OC` [Example 38, 6-(4-acrylamido-3-methoxyphenyl)-3-methyl-7-(4-((4-methylpyrimidin-2-yl)oxy)phenyl)pyrrolo[1,2-a]pyrazine-8-carboxamide]: the IC50 in experiment [1] is 100 to 1000 nM; in experiment [3] it was 10 to 100 nM; in experiment [4], 10 to 100 nM.

For the compound `C=C(F)C(=O)Nc1ccc(-c2c(-c3ccc(Oc4nccc(C)n4)c(F)c3)c(C(N)=O)c3cc(C4CC4)ncn23)cc1` [Example 105, 3-cyclopropyl-6-(3-fluoro-4-((4-methylpyrimidin-2-yl)oxy)phenyl)-7-(4-(2-fluoroacrylamido)phenyl)pyrrolo[1,2-c]pyrimidine-5-carboxamide], the half-inhibitory concentration (IC50) in experiment [1] is 10 to 100 nM; in experiment [3] (read-out: FGFR2 IC50, * incubation at room temperature for 60 minutes before addition of substrate solution, ATP 22 μM, FGFR2 0.01 nM) it was < 10 nM; in experiment [4], 10 to 100 nM.

As for `C=C(F)C(=O)N1CC2(CC2)c2cc(-c3c(-c4ccc(Oc5nccc(C)n5)c(F)c4)c(C(N)=O)c4cnc(C)cn34)c(F)cc21` [Example 102, 6-(6′-fluoro-1′-(2-fluoroacryloyl)spiro[cyclopropane-1,3′-indolin]-5′-yl)-7-(3-fluoro-4-((4-methylpyrimidin-2-yl)oxy)phenyl)-3-methylpyrrolo[1,2-a]pyrazine-8-carboxamide], the half-maximal inhibitory concentration (IC50) in experiment [1] (read-out: FGFR1 IC50, * incubation at room temperature for 60 minutes before addition of substrate solution, ATP 28 μM, FGFR1 0.01 nM) is < 10 nM; in experiment [3], 10 to 100 nM; in experiment [4], 10 to 100 nM.

Regarding `C=CC(=O)Nc1ccc(-c2c(-c3ccc(Oc4nccc(C)n4)c(F)c3)c(C(N)=O)c3cnc(C)cn23)cc1C` [Example 37, 6-(4-acrylamido-3-methylphenyl)-7-(3-fluoro-4-((4-methylpyrimidin-2-yl)oxy)phenyl)-3-methylpyrrolo[1,2-a]pyrazine-8-carboxamide], the values for the IC50 in experiment [1] (setting [6]), in experiment [3] and in experiment [4] were > 1000 nM, 10 to 100 nM and 100 to 1000 nM, respectively.

As for `C=CC(=O)Nc1ccc(-c2c(-c3ccc(Oc4cccc(C)n4)cc3)c(C#N)c3sccn23)cc1` [Example 24, N-(4-(7-cyano-6-(4-((6-methylpyridin-2-yl)oxy)phenyl)pyrrolo[2,1-b]thiazol-5-yl)phenyl) acrylamide], the concentration for half-maximal inhibition (IC50) in experiment [1] (setting [6]) was > 1000 nM; in experiment [3] (setting [5]), > 1000 nM; in experiment [4] (read-out: FGFR3 IC50, incubation with enzyme at room temperature for 10 minutes before substrate, ATP 35 μM, FGFR3 0.1 nM) it was > 1000 nM.
